Measured values reported in patent US20220389003A1, “4-SUBSTITUTED INDOLE AND INDAZOLE SULFONAMIDO DERIVATIVES AS PARG INHIBITORS” (IDEAYA BIOSCIENCES, INC., priority 2019, published 2022).
Like-named read-outs stand apart in the source and are kept apart here.

Key:
[1] = test system: HCC1806-XRCC1 KD (knock down) cells; assay: Cellular viability assay (Cell Titer-Glo); assay type: cell-based; details: HCC1806-shXRCC1 cells, 4 days of incubation, read-out: PARGi cell viability
Experimental: HCC1806-XRCC1 KD (knock down) cells were plated at 2000 cells/well in 96-well white plates with clear flat bottom. After 24 hours, the compounds of the disclosure were added starting at 30 μM for a 9-point dose response curve at 1:3 dilution. The compounds of the disclosure were added by Tecan digital dispenser excluding the outermost wells of the plate. All treatments were done in duplicates. After 4 days of incubation, 50 ul of Cell Titer-Glo (Promega) was added per well. After incubation with the reagent for 15 minutes, luminescence was read using a plate reader (TECAN). Average values of DMSO treated wells in a plate was calculated. All data points were normalized to that of the average DMSO value. The % of control for each sample compared to DMSO treated control samples. Curves are fit as % of control vs. log [compound concentration] using a 4 parameter inhibition model (Levenberg-Marquardt algorithm):
Fit=(A+((B−A)/(1+((C/x)^D))))

PARG [2] = molecular target: T1, PARG (Homo sapiens, UniProt Q86W56); assay: Inhibition of PARG enzymatic assay (TR-FRET enzymatic IC50 assay); assay type: biochemical; design: purchased Peak Proteins; details: hPARG 250 pM, biotinylated-PARylated PARP substrate 30 nM
Experimental: PARG enzyme was incubated with compound or vehicle (DMSO) and the biotinylated-PARylated PARP substrate in a microtiter plate. After adding detection antibody and streptavidin-europium, and then incubating, the plate was read for fluorescence intensity. The low control (DMSO) with low fluorescence intensity represents no inhibition of enzymatic reaction while the high control (no enzyme) with high fluorescence intensity represents full inhibition of enzymatic reaction.
• PARG • hPARG: 250 pM, His-tagged, Peak Proteins, 0.96 mg/mL (8.58 μM) • Substrate: 30 nM • Reaction time: 70 minutes • Substrate: hPARP1, His- and TEV-tagged, Peak Proteins, 14 μM • Detection Antibody: anti-His monoclonal antibody-ULight, Perkin Elmer catalog #TRF0105-M • Streptavidin-Europium: Perkin Elmer catalog #AD0062 • Assay buffer: 50 mM Tris-HCl pH 7.4, 50 mM KCl, 3 mM EDTA, 0.4 mM EGTA, 1 mM DTT, 0.01% Tween 20, 0.01% BSA • Temperature: 23° C. • Total volume: 20 μL
• 0% inhibition control: DMSO • 100% inhibition control: No enzyme
• 1. Transfer 5 μL of 3× final concentration of test compounds or DMSO to the appropriate wells of a microtiter plate. • 2. Centrifuge the plate at 1000 rpm for 1 minute. • 3. Transfer 5 μL of 3× final concentration of enzyme in assay buffer or assay buffer alone to the appropriate wells. • 4. Centrifuge the plate at 1000 rpm for 1 minute. • 5. Incubate the plate at room temperature for 1 hour. • 6. Transfer 5 μL of 3× substrate in assay buffer to all the test wells. • 7. Centrifuge the plate at 1000 rpm for 1 minute. • 8. Incubate the plate at room temperature for 10 minutes. • 9. Transfer 5 μL of 3× mixture of detection antibody and streptavidin-europium in assay buffer to all the test wells. • 10. Centrifuge the plate at 1000 rpm for 1 minute. • 11. Incubate the plate at room temperature for 1 hour. • 12. Read the plate on a plate reader (e.g., Infinite M1000).

PARG [3] = molecular target: T1, PARG; assay: Inhibition of PARG cellular assay (PAR foci in HeLa cells after MMS); assay type: cell-based; design: endogenous in cells; host or cells: HeLa; details: compound 1 h then MMS 1 h
Experimental: The ability of the compounds disclosed herein to inhibit PARG was determined as described below. Briefly, after treating HeLa cells with the compounds of the disclosure for 1 h, followed by treatment with DNA alkylating agent methylmethanesulfonate (MMS) for an additional 1 h, the cells were fixed in 3.7% formaldehyde. The cells were permeabilized in 0.5% Triton-X100, blocked in 5% goat serum, and incubated with mouse monoclonal antibody against poly (ADP) ribose (PAR) polymer overnight at 4° C. The cells were washed and incubated with an Alexafluor 488-linked secondary antibody together with a nuclear stain (Hoechst 33342) for an hour at room temperature. After washing, images of the cells were captured and analyzed on a high content imaging microscope and software. Two measurement of PAR chain were quantified with the mean intensity over background of the nuclear foci (fluorescent signal at 488 nm range 0.3-2.0 μm foci) quantified as PAR foci (PAR Foci IC50). The cells with a PAR foci signal >1.3 was considered as positive (PAR % positive IC50), and the percentage positive cells are quantified.

T1 sequence (Q86W56 whole entry): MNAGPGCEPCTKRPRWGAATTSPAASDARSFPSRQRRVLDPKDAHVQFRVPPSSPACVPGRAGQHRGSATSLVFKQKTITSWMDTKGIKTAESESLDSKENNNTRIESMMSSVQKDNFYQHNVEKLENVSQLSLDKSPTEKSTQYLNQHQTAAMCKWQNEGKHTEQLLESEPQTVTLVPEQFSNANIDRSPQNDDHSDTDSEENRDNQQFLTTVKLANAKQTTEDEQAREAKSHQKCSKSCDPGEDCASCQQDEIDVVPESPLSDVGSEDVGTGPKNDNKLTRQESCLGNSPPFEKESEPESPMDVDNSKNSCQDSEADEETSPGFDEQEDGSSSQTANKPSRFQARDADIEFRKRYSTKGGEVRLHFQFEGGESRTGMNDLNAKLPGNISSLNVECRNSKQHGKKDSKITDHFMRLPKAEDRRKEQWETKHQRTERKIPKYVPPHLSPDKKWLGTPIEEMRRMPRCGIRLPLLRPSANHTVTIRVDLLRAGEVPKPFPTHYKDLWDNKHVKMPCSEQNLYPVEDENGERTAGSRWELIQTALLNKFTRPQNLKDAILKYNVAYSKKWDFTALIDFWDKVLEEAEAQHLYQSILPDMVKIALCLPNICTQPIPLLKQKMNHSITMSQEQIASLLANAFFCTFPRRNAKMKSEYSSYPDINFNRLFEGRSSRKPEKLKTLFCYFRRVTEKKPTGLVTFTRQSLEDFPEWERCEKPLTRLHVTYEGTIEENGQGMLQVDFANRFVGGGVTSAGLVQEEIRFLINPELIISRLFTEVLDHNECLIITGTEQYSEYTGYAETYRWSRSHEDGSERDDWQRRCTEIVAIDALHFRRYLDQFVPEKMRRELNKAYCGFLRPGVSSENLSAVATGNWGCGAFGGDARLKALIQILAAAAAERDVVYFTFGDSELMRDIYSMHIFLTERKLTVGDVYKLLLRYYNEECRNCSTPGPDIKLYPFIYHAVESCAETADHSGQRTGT

Compound	IC50 ([1]; 96 h) [µM]	IC50 (PARG [2]) [µM]	IC50 (PARG [3]) [µM]	IC50 [1] [µM]
N#CC1(NS(=O)(=O)c2cc(N3CC[C@H]4COC[C@H]4C3)c3cnn(-c4nnc(C(F)F)s4)c3c2)CC1 (relative stereo) [Example 56, 1-[({1-[5-(difluoromethyl)(1,3,4-thiadiazol-2-yl)]-4-(cis-8-oxa-3-azabicyclo-[4.3.0]non-3-yl)-1H-indazol-6-yl}sulfonyl)amino]cyclopropanecarbonitrile]	10 to 20	0.3 to 1		
N#CC1(NS(=O)(=O)c2cc(-c3ccc4cn[nH]c4c3)c3cnn(-c4nnc(C(F)F)s4)c3c2)CC1 [Example 2, 1-[({4-(1H-indazol-6-yl)-1-[5-(difluoromethyl)(1,3,4-thiadiazol-2-yl)]-1H-indazol-6-yl}sulfonyl)amino]cyclopropanecarbonitrile]	20 to 30	1 to 10		
CN(C)C(=O)c1ccc(-c2cc(S(=O)(=O)NC3(C#N)CC3)cc3c2cnn3-c2nnc(C(F)F)s2)cc1 [Example 3, [4-(1-[5-(difluoromethyl)(1,3,4-thiadiazol-2-yl)]-6-{[(cyanocyclopropyl)amino]sulfonyl}(1H-indazol-4-yl))phenyl]-N,N-dimethylcarboxamide]	10 to 20	0.1 to 0.3		
CN(C)C(=O)c1cccc(-c2cc(S(=O)(=O)NC3(C#N)CC3)cc3c2cnn3-c2nnc(C(F)F)s2)c1 [Example 4, [3-(1-[5-(difluoromethyl)(1,3,4-thiadiazol-2-yl)]-6-{[(cyanocyclopropyl)amino]sulfonyl}(1H-indazol-4-yl))phenyl]-N,N-dimethylcarboxamide]	20 to 30	0.3 to 1		
N#CC1(NS(=O)(=O)c2cc(N3CCC4(COC4)C3)c3cnn(-c4nnc(C(F)F)s4)c3c2)CC1 [Example 34, 1-[({1-[5-(difluoromethyl)(1,3,4-thiadiazol-2-yl)]-4-(2-oxa-6-azaspiro[3.4]oct-6-yl)-1H-indazol-6-yl}sulfonyl)amino]cyclopropanecarbonitrile]	20 to 30	0.3 to 1		
Cn1cnnc1N1CCN(c2cc(S(=O)(=O)NC3(C#N)CC3)cc3c2cnn3-c2nnc(C(F)F)s2)CC1 [Example 36, 1-[({1-[5-(difluoromethyl)(1,3,4-thiadiazol-2-yl)]-4-[4-(4-methyl(1,2,4-triazol-3-yl))piperazinyl]-1H-indazol-6-yl}sulfonyl)amino]cyclopropanecarbonitrile]	10 to 20	≤ 0.1		
CNC(=O)C1CCN(c2cc(S(=O)(=O)NC3(C#N)CC3)cc3c2cnn3-c2nnc(C(F)F)s2)C1 (stereo not drawn) [Example 53, [1-(1-[5-(difluoromethyl)(1,3,4-thiadiazol-2-yl)]-6-{[(cyanocyclopropyl)amino]sulfonyl}(1H-indazol-4-yl))pyrrolidin-3-yl]-N-methylcarboxamide]	10 to 20	0.1 to 0.3		
CN(C)C(=O)C1CCN(c2cc(S(=O)(=O)NC3(C#N)CC3)cc3c2cnn3-c2nnc(C(F)F)s2)C1 (stereo not drawn) [Example 54, [1-(1-[5-(difluoromethyl)(1,3,4-thiadiazol-2-yl)]-6-{[(cyanocyclopropyl)amino]sulfonyl}(1H-indazol-4-yl))pyrrolidin-3-yl]-N,N-dimethylcarboxamide]	10 to 20	0.1 to 0.3		
COC(=O)N1CCN(c2cc(S(=O)(=O)NC3(C#N)CC3)cc3c2cnn3-c2nnc(C(F)F)s2)CC1 [Example 58, methyl 4-(1-[5-(difluoromethyl)(1,3,4-thiadiazol-2-yl)]-6-{[(cyanocyclopropyl)amino]sulfonyl}-1H-indazol-4-yl)piperazinecarboxylate]	1 to 10	≤ 0.1		
N#CC1(NS(=O)(=O)c2cc(N3CCN4C(=O)OC[C@H]4C3)c3cnn(-c4nnc(C(F)F)s4)c3c2)CC1 [Example 61, 1-[({4-((1R)-7-oxo-8-oxa-3,6-diazabicyclo[4.3.0]non-3-yl)-1-[5-(difluoromethyl) (1,3,4-thiadiazol-2-yl)]-1H-indazol-6-yl}sulfonyl)amino]cyclopropanecarbonitrile]	1 to 10	≤ 0.1		
CN1CCCN(c2cc(S(=O)(=O)NC3(C#N)CC3)cc3c2cnn3-c2nnc(C(F)F)s2)CC1 [Example 63, 1-[({1-[5-(difluoromethyl)(1,3,4-thiadiazol-2-yl)]-4-(4-methyl(1,4-diazaperhydroepinyl))-1H-indazol-6-yl}sulfonyl)amino]cyclopropanecarbonitrile]	10 to 20	≤ 0.1		
N#CC1(NS(=O)(=O)c2cc(N3CCC(C(F)F)CC3)c3cnn(-c4nnc(C(F)F)s4)c3c2)CC1 [Example 64, 1-[({1-[5-(difluoromethyl)(1,3,4-thiadiazol-2-yl)]-4-[4-(difluoromethyl)piperidyl]-1H-indazol-6-yl}sulfonyl)amino]cyclopropanecarbonitrile]	20 to 30	1 to 10		
CNC(=O)N1CCN(c2cc(S(=O)(=O)NC3(C#N)CC3)cc3c2cnn3-c2nnc(C(F)F)s2)CC1 [Example 74, 4-(6-(N-(1-cyanocyclopropyl)sulfamoyl)-1-(5-(difluoromethyl)-1,3,4-thiadiazol-2-yl)-1H-indazol-4-yl)-N-methylpiperazine-1-carboxamide]	1 to 10	≤ 0.1		
CNC(=O)C1CN(c2cc(S(=O)(=O)NC3(C#N)CC3)cc3c2cnn3-c2nnc(C(F)F)s2)C1 [Example 75, 1-(6-(N-(1-cyanocyclopropyl)sulfamoyl)-1-(5-(difluoromethyl)-1,3,4-thiadiazol-2-yl)-1H-indazol-4-yl)-N-methylazetidine-3-carboxamide]	20 to 30	0.3 to 1		
CN(C)CCN(C)C(=O)N1CCN(c2cc(S(=O)(=O)NC3(C#N)CC3)cc3c2cnn3-c2nnc(C(F)F)s2)CC1 [Example 76, [4-(1-[5-(difluoromethyl)(1,3,4-thiadiazol-2-yl)]-6-{[(cyanocyclopropyl)amino]sulfonyl}(1H-indazol-4-yl))piperazinyl]-N-[2-(dimethylamino)ethyl]-N-methylcarboxamide]	1 to 10	≤ 0.1		
CN1CC2(CCN(c3cc(S(=O)(=O)NC4(C#N)CC4)cc4c3cnn4-c3nnc(C(F)F)s3)CC2)C1 [Example 92, 1-[({1-[5-(difluoromethyl)(1,3,4-thiadiazol-2-yl)]-4-(2-methyl-2,7-diazaspiro-[3.5]non-7-yl)-1H-indazol-6-yl}sulfonyl)amino]cyclopropanecarbonitrile]	10 to 20	0.3 to 1		
N#CC1(NS(=O)(=O)c2cc(N3CCC(F)(F)CC3)c3cnn(-c4nnc(C(F)F)s4)c3c2)CC1 [Example 105, 1-[({1-[5-(difluoromethyl)(1,3,4-thiadiazol-2-yl)]-4-(4,4-difluoropiperidyl)-1H-indazol-6-yl}sulfonyl)amino]cyclopropanecarbonitrile]		1 to 10	0.3 to 1	
[4-(1-[5-(difluoromethyl)(1,3,4-thiadiazol-2-yl)]-6-{[(cyanocyclopropyl)amino]sulfonyl}(1H-indazol-4-yl))(1,4-diazaperhydroepinyl)]-N-methylcarboxamide [Example 31]		0.3 to 1		10 to 20
